Source: patent publication EP0656952B1, “CATIONIC PEPTIDES AND METHOD FOR PRODUCTION” (THE UNIVERSITY OF BRITISH COLUMBIA, priority 1992, dated 1994)

How the values were obtained:
[1] = tested on: S. typhimurium defensin sensitive strain (C590); assay: Minimum inhibitory concentration (MIC), broth dilution; format: cell-based; conditions: MIC comparison with parent strain
Procedure: (§1) The minimum inhibitory concentrations of (MIC) of CEME, CEMA and melittin were determined for a number of different bacteria (Table 2). Briefly, cells were grown overnight at 37°C in LB-S (Luria broth without any salt supplement) and diluted one in 10,000 in the same medium to give concentrations of about 10^4 to 10^5 CFU/ml. The broth dilutions were set up in a 96 well microtiter plate by putting 200µl of LB-S containing the initial concentration of antibiotic or compound in column 1 and 100 µl of the same medium in columns 2-12. The compounds were diluted by taking 100 µl of broth from column 1 and mixing it with column 2, resulting in a one in two dilution. This was continued to column 10. Finally, 10 µl of bacteria were pipetted into columns 1-11, and the plates incubated overnight at 37°C. The next day the plates were scored for growth in the wells, and the MIC determined.

[2] = tested on: a number of different bacteria; assay: as above; format: cell-based; conditions: MIC comparison
Procedure: as §1

[3] = tested on: P. aeruginosa; assay: 1-N-phenylnaphthylamine (NPN) uptake assay; format: cell-based; conditions: 10 µM NPN, FIGURE 7
Source text: (§2) The second assay determined membrane permeability by the ability of 1-N-phenylnaphthylamine (NPN), a small fluorescent probe, to insert itself into the membrane. Normally, very little NPN can penetrate the outer membrane, but in the presence of a membrane permeabilizer it can insert into the hydrophobic membrane resulting in an increase in fluorescence (FIGURES 7 and 8). This N-phenylnaphthylamine uptake assay was previously described by Loh, et al., Antimicrobial Agents and Chemo., 26:546, 1984. Cells were prepared exactly the same as for the lysozyme lysis assay. 1-N-phenylnaphthylamine (NPN) was dissolved in acetone at a concentration of 500 µM. NPN fluorescence was measured in a Perkin-Elmer 650-10S fluorescent spectrophotometer using excitation and emission wavelengths set to 350 nm and 420 nm respectively, with slit widths of 5 nm. The assay was standardized by adding 20 µl of NPN (final concentration of 10 µM) and 10µl of 0.64 mg/ml of polymyxin B (final concentration of 6.4 µg/ml) into 1 ml of cells, and adjusting the resulting fluorescence to read 90% deflection (90 arbitrary units). Various compounds were tested by adding 10 µl of different concentrations to a cuvette containing 1 ml of cells and 10 µM NPN. Permeabilizing activity was designated as the total fluorescence minus the fluorescence due to NPN alone. Following the fluorescence measurement, the OD600 of the cells was taken to ensure no significant cell lysis had occurred.

[4] = tested on: E. cloacae; assay: 1-N-phenylnaphthylamine (NPN) uptake assay; format: cell-based; conditions: 10 µM NPN, FIGURE 8
Source text: as §2

[5] = Synergy: MIC of antibiotics in the presence of sub-MIC levels of cationic peptides; format: cell-based
Procedure: as §1
The ability of the cationic peptides to work synergystically was examined by determining the MIC values for some commonly used antibiotics in the presence of sub-MIC levels of cationic peptides (Table 4). […] This may be due to the high membrane permeabilizing activity of CEMA (see below). However, the peptides did lower the MIC of polymyxin B, possibly due to the fact that they are all taken up by the same pathway and are therefore aiding each other's uptake. […]

[6] = tested on: P. aeruginosa LPS; assay: Dansyl polymyxin (DPx) displacement assay with purified LPS; format: binding; conditions: on a µM basis, compared with polymyxin B
Procedure: DPx is a derivative of polymyxin that fluoresces strongly when bound to LPS, but weakly when free in solution. In this assay, DPx was incubated with LPS to saturate the binding sites and then, while polycationic compounds are titrated into the reaction, displacement of the DPx was monitored by the decrease in fluorescence (FIGURE 9). P. aeruginosa LPS was isolated as previously described (Darveau, et al., J. of Bacteriology, 155:831, 1983) Dansyl polymyxin was synthesized as described by Schindler, et al., B. Antimicrobial Agents and Chemo, 8:95, 1975.
Briefly, 40 mgs of polymyxin B and 10 mgs of dansyl chloride were mixed in 2 mls of 60 mM NaHC03 and 40% acetone and incubated in the dark for 90 minutes. […] The dansyl polymyxin was resuspended in 5 mM Hepes pH 7.0, quantitated by dinitrophenylation and stored in aliquots at -20°C.
The method of Moore, et al., (Antimicrobial Agents end Chemo., 29:496, 1987), was used to test how much DPx was needed to saturate the binding sties on LPS. Briefly, 5 µl samples of 100 µM DPx were titrated sequentially into 1ml of 3 µg/ml of LPS until a maximum fluorescence was reached. The fluorescence was measured in a Perkin-Elmer 650-10S fluorescence spectrophotometer with an excitation wavelength of 340 nm and an emission wavelength of 485 nm using slit widths of 5 nm. […]

[7] = tested on: P. aeruginosa H309; assay: Lysozyme lysis assay (membrane permeabilization); format: cell-based; conditions: P. aeruginosa data only
Procedure: Membrane permeabilization by polycationic compounds was measured in two different assays. The first assay measured membrane disruption by the ability of lysozyme to reach the periplasm and cause cell lysis. […] The uptake of tysozyme into whole cells due to membrane permeabilization by various compounds was previously described in Hancock, et al., Antimicrobial Agents and Chemo., 19:777; 1981. Overnight cultures of P. aeruginosa H309 or E. cloacae 218R1 grown in LB-S were diluted 1 in 50 in fresh medium and grown to an OD600 ≈ 0.5-0.6. The cells were harvested in a Silencer H-103N clinical centrifuge at 1800 g for 10 min, washed once with one volume of assay buffer (5 mM HEPES pH 7.2, 5 mM KCN), and resuspended in the same buffer to an OD600 of 0.5. Assays consisted of 600 µl of cells with 50 µg/ml of chicken egg white lysozyme and varying concentrations of cationic compounds. Cell lysis was measured as a decrease in the OD600 in a Perkin-Emmer dual beam spectrophotometer. Parallel experiments performed without lysozyme enabled the measurement of the lytic activity of the compounds themselves. To test whether or not permeability to lysozyme could be inhibited by divalent cations, various concentrations of MgCl2 were added to the assay after the addition of lysozyme and before the addition of the test compound.

[8] = tested on: E. coli strain DC2; assay: Acid-urea gel overlay antibacterial activity test; format: cell-based; conditions: acid-urea gel overlaid with agar containing ≈ 10^5 E. coli strain DC2, overnight at 37°C
Procedure: A sample of the partially purified CEME protein was electrophoresed on a 15% acid-urea gel, which separates proteins based on charge and mass (Panyim and Chalkey, Arch. Biochem. Biophys., 130:337, 1969). The pH of the buffer is acidic (≈ pH 5.0) and the polarity is reversed such that proteins migrate to the cathode. Therefore, the small cationic peptides run relatively quickly through the gel and thus can be easily identified. Antibacterial activity was tested as previously described (Hultmark, Eur. J. Biochem., 106:7, 1980). The gel was incubated in Mueller Hinton broth + 0.2M NaPO4 pH 7.4 for 1 hr. It was overlaid with 5 mls of the same media containing 0.6% agar and ≈ 10^5 E. coli strain DC2, and then again with 5 ml of the same media containing only 0.6% agar. […] Melittin is used as a positive control due to its antibacterial activity and similarity in size and PI values.

| Compound | sensitivity of the S. typhimurium defensin sensitive strain (C590) [1] | resistance of the mutant SC9252 [2] | opening up the membrane to NPN [3] | opening up the membrane to NPN [4] | effect on the MIC of polymyxin B [5] | affinity for LPS (I50) [6] | permeabilizer for lysozyme relative to gentamicin ([7]; lysis without lysozyme taken into consideration) | cell lysis in the absence of lysozyme ([7]; increased concentrations of peptide) | zones of clearing at the migration site [8] |
| --- | --- | --- | --- | --- | --- | --- | --- | --- | --- |
| CC(C)(O/N=C(\C(=O)N[C@@H]1C(=O)N2C(C(=O)[O-])=C(C[n+]3ccccc3)CS[C@H]12)c1csc(N)n1)C(=O)O [ceftazidime] | unchanged | increased resistance |  |  |  |  |  |  |  |
| polymyxin B | four-fold more sensitive | increased resistance | equally active | equally active |  |  |  |  |  |
| melittin | two-fold more sensitive |  | less active |  | lower than those in the presence of CEME and CEMA | slightly lower affinities | 5- to 10 fold | cell lysis in the absence of lysozyme occurred | zones of clearing |
| gentamicin | two-fold more sensitive |  |  |  |  |  |  |  |  |
